Assay results: ChEMBL document CHEMBL4732213, “Discovery of novel ceramide analogs with favorable pharmacokinetic properties and combination with AKT inhibitor against colon cancer” (Eur J Med Chem, 2021)
Active and inactive are the calls of the source. The rule behind the calls is not given here.

What was measured:
[1] = system: HT-29; experiment: Antiproliferative activity against human HT-29 cells measured after 72 hrs by sulforhodamine B assay; format: functional, cell-based; conditions: HT-29, 72 h
[2] = system: HT-29; experiment: Induction of ROS generation in human HT29 cells at 10 uM after 16 hrs by flow cytometric analysis; format: functional, cell-based
[3] = system: HT-29; experiment: Upregulation of p21 protein expression in human HT29 cells at 10 uM incubated for 24 hrs by Western blotting analysis; format: functional, cell-based
[4] = system: HT-29; experiment: Antitumor activity against human HT-29 cells xenografted in BALB/c nude mouse assessed as tumor growth inhibition at 50 mg/kg, po Q2D measured every 3 days by electronic caliper method; format: functional; conditions: HT-29, po, 72 h, time 3 day, read-out: TGI
[5] = Toxicity in BALB/c nude mouse xenografted with human HT-29 cells assessed as effect on body weight at 50 mg/kg, po measured every 3 day by electronic caliper method; format: organism-based; conditions: in vivo, 72 h
[6] = system: HT-29; experiment: Induction of apoptosis in human HT29 cells assessed as inhibition of AKT phosphorylation at 10 uM after 48 hrs by Western blotting analysis; format: functional, cell-based
[7] = system: HT-29; experiment: Down regulation of p-RB expression in human HT29 cells at 10 uM incubated for 24 hrs by Western blotting analysis; format: functional, cell-based
[8] = system: HT-29; experiment: Induction of apoptosis in human HT29 cells at 7.5 uM after 48 hrs by Annexin-V-FITC/PI staining based flow cytometric analysis; format: functional, cell-based
[9] = system: HT-29; experiment: Induction of cell cycle arrest in human HT29 cells assessed as accumulation at G0/G1 phase at 10 uM after 24 hrs by PI staining based flow cytometry analysis; format: functional
[10] = system: HT-29; experiment: Downregulation of c-Myc protein expression level in human HT29 cells at 10 uM incubated for 24 hrs by Western blotting analysis; format: functional, cell-based
[11] = AUC(0 to t) in BALB/c mouse at 50 mg/kg, ip; format: ADME, organism-based; parameters: dose 50 mg/kg; conditions: in vivo
[12] = Cmax in BALB/c mouse at 50 mg/kg, ip; format: ADME, organism-based; parameters: route intraperitoneal, dose 50 mg/kg; conditions: in vivo
[13] = AUC(0 to t) in BALB/c mouse at 10 mg/kg, iv; format: ADME, organism-based; parameters: dose 10 mg/kg; conditions: in vivo
[14] = Half life in BALB/c mouse at 10 mg/kg, iv; format: ADME, organism-based; conditions: in vivo
[15] = Tmax in BALB/c mouse at 50 mg/kg, ip; format: ADME, organism-based; conditions: in vivo
[16] = AUC(0 to infinity) in BALB/c mouse at 10 mg/kg, iv; format: ADME, organism-based; parameters: route intravenous, time infinity, dose 10 mg/kg; conditions: in vivo
[17] = AUC(0 to infinity) in BALB/c mouse at 50 mg/kg, ip; format: ADME, organism-based; parameters: time infinity, route intraperitoneal, dose 50 mg/kg; conditions: in vivo
[18] = Half life in BALB/c mouse at 50 mg/kg, ip; format: ADME, organism-based; conditions: in vivo

SMILES | IC50 [1] [µM] | also measured
CCCCCCCOc1ccc(CCC(CO)(CO)NC(=O)CCCCC)c2ccccc12 | 21.9 | 
NC1(c2ccc(-c3nc4ccn5c(=O)[nH]nc5c4cc3-c3ccccc3)cc2)CCC1 [MK-2206] |  | Activity [2]: Active; Activity [3]: inactive; inhibition in vivo at 50 mg/kg [4]: 30.9%; Activity [5]: Non-Toxic; Activity [6]: Active; Activity [7]: inactive; Activity [8]: inactive; Activity [9]: Active; Activity [10]: inactive
CCCCCCCCCCCCC/C=C/[C@@H](O)[C@H](CO)NC(C)=O | 25.9 | AUC(0-t) [11]: 4060 ng·h/mL; Cmax [12]: 2740 ng/mL; AUC(0-t) [13]: 1620 ng·h/mL; half-life [14]: 5.08 h; Tmax [15]: 0.417 h; AUC(0-inf) [16]: 1630 ng·h/mL; AUC(0-inf) [17]: 4090 ng·h/mL; half-life [18]: 3.99 h
CC(=O)NC(CO)(CO)CCc1ccc(O)c2ccccc12 | > 80 | 
CCCCCCCCc1ccc(CCC(CO)(CO)NC(=O)C(C)CC)c2ccccc12 (configuration not stated) | 25.6 | 
CCCCCCCCc1ccc(CCC(CO)(CO)NC(C)=O)c2ccccc12 | 36.5 | 
CCCCCCCCc1ccc(CCC(CO)(CO)NC(=O)CCC)c2ccccc12 | 26.4 | 
CCCCc1ccc(Oc2ccc(CCC(CO)(CO)NC(C)=O)c3ccccc23)cc1 | > 80 | 
CCCCCCCOc1ccc(CCC(CO)(CO)NC(=O)OCCCC)c2ccccc12 | 22.4 | 
C/C=C/C(=O)NC(CO)(CO)CCc1ccc(OCCCCCCC)c2ccccc12 | 36.4 | 
CCCCCCCCc1ccc(CCC(CO)(CO)NC(=O)CCCCC)c2ccccc12 | 20.3 | 

Second part, led by results:

IC50 [1] [µM] | SMILES | also measured
77.9 | CCCCCCCCc1ccc(C(O)CC(CO)(CO)NC(C)=O)c2ccccc12 (configuration not stated) | 
27.1 | CCCCc1ccc(COc2ccc(CCC(CO)(CO)NC(C)=O)c3ccccc23)cc1 | 
18.8 | CCCCCCCOc1ccc(CCC(CO)(CO)NC(=O)CCCCCCC)c2ccccc12 | 
> 80 | CCCCCCCCCCCCCC(=O)NC(CO)(CO)CCc1ccc(CCCCCCCC)c2ccccc12 | 
> 80 | COc1ccc(CCC(CO)(CO)NC(C)=O)c2ccccc12 | 
22 | CCCCCCCCc1ccc(CCC(CO)(CO)NC(=O)CCCCCCC)c2ccccc12 | 
23 | CCCCCCCCc1ccc(CCC(CO)(CO)NC(=O)c2ccccc2)c2ccccc12 | 
21.4 | CCCCCCCOc1ccc(CCC(CO)(CO)NC(=O)OC(C)(C)C)c2ccccc12 | 
> 80 | CCCCCCCCCC(=O)NC(CO)(CO)CCc1ccc(CCCCCCCC)c2ccccc12 | 
60.5 | CCCCCCCOc1ccc(CCC(CO)(CO)NC(=O)OCc2ccccc2)c2ccccc12 | 
